Experimental data as given in patent US20150011541A1, “PIPECOLATE-SULFONAMIDES FOR TREATMENT OF PSYCHIATRIC DISORDERS” (Max-Planck-Gesellschaft zur Förderung der Wissenschaften …, priority 2011, published 2015).
Like-named read-outs stand apart in the source and are kept apart here.

What was measured:
[1] = molecular target: T1, human FKBP52FK1 (Homo sapiens, UniProt Q02790); assay: Fluorescence polarization assay, binding to FK1 domain of FKBP52; conditions: for IC50: binding affinity, fluorescence polarization assay; for inhibition at 5 µM: read-out: FKBP52 FK1 % inhibition
T1 sequence (Q02790 50-138 limits assumed): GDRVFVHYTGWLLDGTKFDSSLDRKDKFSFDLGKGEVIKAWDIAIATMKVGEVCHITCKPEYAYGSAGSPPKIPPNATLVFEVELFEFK

[2] = molecular target: T2, human FKBP51FK1 (Homo sapiens, UniProt Q13451); assay: Fluorescence polarization assay, binding to FK1 domain of FKBP51; conditions: for IC50: binding affinity, fluorescence polarization assay; for inhibition at 5 µM: read-out: FKBP 51 FK1 % inhibition
T2 sequence (Q13451 42-130 limits assumed): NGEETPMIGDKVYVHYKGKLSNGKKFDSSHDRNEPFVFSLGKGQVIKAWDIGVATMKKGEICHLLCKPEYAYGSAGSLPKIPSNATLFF

[3] = at a concentration of 5 μM, library testing

COc1ccc(CC[C@@H](OC(=O)[C@@H]2CCCCN2S(=O)(=O)c2ccc3[nH]c(=O)sc3c2)c2cccc(OCC(=O)O)c2)cc1OC [Compound 28, 2-(3-((R)-3-(3,4-dimethoxyphenyl)-1-((S)-1-(2-oxo-2,3-dihydrobenzo[d]thiazol-6-ylsulfonyl)piperidine-2-carbonyloxy)propyl)phenoxy)aceticacid] showed an IC50 [1] of 66.5 ± 27.1 µM and an IC50 [2] of 14.7 ± 1.1 µM.

In the case of COc1ccc(CC[C@@H](OC(=O)[C@@H]2CCCCN2S(=O)(=O)c2c(C)nn(-c3ccccc3)c2C)c2cccc(OCC(=O)O)c2)cc1OC [Compound 62, 2-(3-((R)-3-(3,4-dimethoxyphenyl)-1-((S)-1-(3,5-dimethyl-1-phenyl-1H-pyrazol-4-ylsulfonyl)piperidine-2-carbonyloxy)propyl)phenoxy)acetic acid], the inhibition at 5 µM [1, 3] is reported as 4.7% and the inhibition at 5 µM [2, 3] is reported as 0.9%.

In the case of COc1ccc(CC[C@@H](OC(=O)[C@@H]2CCCCN2S(=O)(=O)c2c(C)nn(C)c2C)c2cccc(OCC(=O)O)c2)cc1OC [Compound 61, 2-(3-((R)-3-(3,4-dimethoxyphenyl)-1-((S)-1-(1,3,5-trimethyl-1H-pyrazol-4-ylsulfonyl)piperidine-2-carbonyloxy)propyl)phenoxy)acetic acid], the inhibition at 5 µM [1, 3] is reported as 1.9% and the inhibition at 5 µM [2, 3] is reported as 5.5%.

COc1ccc(CC[C@@H](OC(=O)[C@@H]2CCCCN2S(=O)(=O)c2ccoc2)c2cccc(OCC(=O)O)c2)cc1OC [Compound 53, 2-(3-((R)-3-(3,4-dimethoxyphenyl)-1-((S)-1-(furan-3-ylsulfonyl)piperidine-2-carbonyloxy)propyl)phenoxy)acetic acid] was tested, and the inhibition at 5 µM [1, 3] was 5.7% and the inhibition at 5 µM [2] was 2%.

COc1ccc(CC[C@@H](OC(=O)[C@@H]2CCCCN2S(=O)(=O)c2cccc(Cl)c2)c2cccc(OCC(=O)O)c2)cc1OC [Compound 2] gave an IC50 [1] of 32.8 ± 14.5 µM, an inhibition at 5 µM [1] of 18% and an IC50 [2] of 30.7 ± 15.7 µM. It also gave an inhibition at 5 µM [2] of 17.5%.

Compound COc1ccc(CC[C@@H](OC(=O)[C@@H]2CCCCN2S(=O)(=O)c2ccc3nc(C)sc3c2)c2cccc(OCC(=O)O)c2)cc1OC [Compound 27, 2-(3-((R)-3-(3,4-dimethoxyphenyl)-1-((S)-1-(2-methylbenzo[d]thiazol-6-ylsulfonyl)piperidine-2-carbonyloxy)propyl)phenoxy)acetic acid] has an IC50 [1] of 26.5 ± 4.9 µM and an IC50 [2] of 18.4 ± 1.4 µM.

Work on COc1ccc(CC[C@@H](OC(=O)[C@@H]2CCCCN2S(=O)(=O)c2ccc(C(F)(F)F)cc2)c2cccc(OCC(=O)O)c2)cc1OC [Compound 40, 2-(3-((R)-3-(3,4-dimethoxyphenyl)-1-((S)-1-(4-(trifluoromethyl)phenylsulfonyl)piperidine-2-carbonyloxy)propyl)phenoxy)acetic acid] yielded an inhibition at 5 µM [1, 3] of 12.3% and an inhibition at 5 µM [2, 3] of 8.9%.

Compound COc1ccc(CC[C@@H](OC(=O)[C@@H]2CCCCN2S(=O)(=O)c2cccc(F)c2)c2cccc(OCC(=O)O)c2)cc1OC [Compound 11, 2-(3-((R)-3-(3,4-dimethoxyphenyl)-1-((S)-1-(3-fluorophenylsulfonyl)piperidine-2-carbonyloxy)propyl)phenoxy)acetic acid] has an IC50 [1] of 37.3 ± 13.6 µM and an IC50 [2] of 18.2 ± 8.8 µM.

Compound COc1ccc(CC[C@@H](OC(=O)[C@@H]2CCCCN2S(=O)(=O)c2cccc(Br)c2)c2cccc(OCC(=O)O)c2)cc1OC [Compound 12, 2-(3-((R)-1-((S)-1-(3-bromophenylsulfonyl)piperidine-2-carbonyloxy)-3-(3,4-dimethoxyphenyl)propyl)phenoxy)acetic acid] has an IC50 [1] of 17.1 ± 11 µM and an IC50 [2] of 3.06 ± 0.25 µM.

COc1ccc(CC[C@@H](OC(=O)[C@@H]2CCCCN2S(=O)(=O)c2cc(Cl)c(O)c(Cl)c2)c2cccc(OCCN3CCOCC3)c2)cc1OC [Compound 33, (S)-((R)-3-(3,4-dimethoxyphenyl)-1-(3-(2-morpholinoethoxy)phenyl)propyl)1-(3,5-dichloro-4-hydroxyphenylsulfonyl)piperidine-2-carboxylate] gave an IC50 [1] of 0.71 ± 0.1 µM and an IC50 [2] of 0.456 ± 0.05 µM.

COc1ccc(CCCOC(=O)C2CCCCN2S(=O)(=O)Cc2ccccc2)cc1OC (centres unmarked) [Ref. 3, 3-(3,4-dimethoxyphenyl)propyl 1-(benzylsulfonyl)piperidine-2-carboxylate, reference compound] was tested, and the IC50 [1] was > 100 µM and the IC50 [2] was > 100 µM.

COc1ccc(CC[C@@H](OC(=O)[C@@H]2CCCCN2S(=O)(=O)c2ccc3[nH]c(=O)sc3c2)c2cccc(OCCN3CCOCC3)c2)cc1OC [Compound 35, (S)-((R)-3-(3,4-dimethoxyphenyl)-1-(3-(2-morpholinoethoxy)phenyl)propyl)1-(2-oxo-2,3-dihydrobenzo[d]thiazol-6-ylsulfonyl)piperidine-2-carboxylate] gave an IC50 [1] of 2.5 ± 0.38 µM and an IC50 [2] of 1.3 ± 0.13 µM.

COc1ccc(CC[C@@H](OC(=O)[C@@H]2CCCCN2S(=O)(=O)c2ccc3c(c2)N(C)CCO3)c2cccc(OCC(=O)O)c2)cc1OC [Compound 51, 2-(3-((R)-3-(3,4-dimethoxyphenyl)-1-((S)-1-(4-methyl-3,4-dihydro-2H-benzo[b][1,4]oxazin-6-ylsulfonyl)piperidine-2-carbonyloxy)propyl)phenoxy)acetic acid] showed an inhibition at 5 µM [1, 3] of 6.6% and an inhibition at 5 µM [2, 3] of 9.5%.

Compound COc1ccc(CC[C@@H](OC(=O)[C@@H]2CCCCN2S(=O)(=O)c2ccc(Oc3ccccc3)nc2)c2cccc(OCC(=O)O)c2)cc1OC [Compound 43, 2-(3-((R)-3-(3,4-dimethoxyphenyl)-1-((S)-1-(6-phenoxypyridin-3-ylsulfonyl)piperidine-2-carbonyloxy)propyl)phenoxy)acetic acid] has an inhibition at 5 µM [1, 3] of 11.4% and an inhibition at 5 µM [2, 3] of 3.7%.

Compound COc1ccc(CC[C@@H](OC(=O)[C@@H]2CCCCN2S(=O)(=O)c2csc3ccccc23)c2cccc(OCC(=O)O)c2)cc1OC [Compound 57, 2-(3-((R)-1-((S)-1-(benzo[b]thiophen-3-ylsulfonyl)piperidine-2-carbonyloxy)-3-(3,4-dimethoxyphenyl)propyl)phenoxy)acetic acid] has an inhibition at 5 µM [1, 3] of 4.7% and an inhibition at 5 µM [2, 3] of 3.2%.

With COc1ccc(CC[C@@H](OC(=O)[C@@H]2CCCCN2S(=O)(=O)c2cc(Cl)cc(Cl)c2)c2cccc(OCC(=O)O)c2)cc1OC [Compound 13, 2-(3-((R)-1-((S)-1-(3,5-dichlorophenylsulfonyl)piperidine-2-carbonyloxy)-3-(3,4-dimethoxy-phenyl)propyl)phenoxy)acetic acid] the IC50 [1] was 14.3 ± 1.8 µM and the IC50 [2] was 22.6 ± 8.2 µM.

For COc1ccc(CC[C@@H](OC(=O)[C@@H]2CCCCN2S(=O)(=O)c2cccc(-c3nnc(C)o3)c2)c2cccc(OCC(=O)O)c2)cc1OC [Compound 47, 2-(3-((R)-3-(3,4-dimethoxyphenyl)-1-((S)-1-(3-(5-methyl-1,3,4-oxadiazol-2-yl)phenylsulfonyl)piperidine-2-carbonyloxy)propyl)phenoxy)acetic acid], the inhibition at 5 µM [1, 3] was 3.8% and the inhibition at 5 µM [2, 3] was 4.9%.

For COc1ccc(CC[C@@H](OC(=O)[C@@H]2CCCCN2S(=O)(=O)c2cc(Cl)c(NC(C)=O)c(Cl)c2)c2cccc(OCCN3CCOCC3)c2)cc1OC [Compound 34, (S)-((R)-3-(3,4-dimethoxyphenyl)-1-(3-(2-morpholinoethoxy)phenyl)propyl)1-(4-acetamido-3,5-dichlorophenylsulfonyl)piperidine-2-carboxylate], the IC50 [1] was 8.3 ± 6.8 µM and the IC50 [2] was 12.3 ± 18.9 µM.

In the case of COc1ccc(CC[C@@H](OC(=O)[C@@H]2CCCCN2S(=O)(=O)c2cc(Cl)c(OC)c(Cl)c2)c2cccc(OCC(=O)O)c2)cc1OC [Compound 22, 2-(3-((R)-1-((S)-1-(3,5-dichloro-4-methoxyphenylsulfonyl)piperidine-2-carbonyloxy)-3-(3,4-dimethoxyphenyl)propyl)phenoxy)acetic acid], the IC50 [1] is reported as 17.7 ± 1.6 µM and the IC50 [2] is reported as 16.4 ± 1.7 µM.

In the case of COc1ccc(CC[C@@H](OC(=O)[C@@H]2CCCCN2S(=O)(=O)c2ccc(Cl)cc2)c2cccc(OCC(=O)O)c2)cc1OC [Compound 36, 2-(3-((R)-1-((S)-1-(4-chlorophenylsulfonyl)piperidine-2-carbonyloxy)-3-(3,4-dimethoxyphenyl)propyl)phenoxy)acetic acid], the inhibition at 5 µM [1] is reported as 15.2% and the inhibition at 5 µM [2] is reported as 11.7%.

Work on COc1ccc(S(=O)(=O)N2CCCC[C@H]2C(=O)O[C@H](CCc2ccc(OC)c(OC)c2)c2cccc(OCC(=O)O)c2)cc1Cl [Compound 16, 2-(3-((R)-1-((S)-1-(3-chloro-4-methoxyphenylsulfonyl)piperidine-2-carbonyloxy)-3-(3,4-dimethoxyphenyl)propyl)phenoxy)aceticacid] yielded an IC50 [1] of 20.2 ± 3.5 µM and an IC50 [2] of 18.8 ± 2.4 µM.

COc1ccc(CC[C@@H](OC(=O)[C@@H]2CCCCN2S(=O)(=O)c2cc3c(c([N+](=O)[O-])c2)OCC3)c2cccc(OCC(=O)O)c2)cc1OC [Compound 25, 2-(3-((R)-3-(3,4-dimethoxyphenyl)-1-((S)-1-(7-nitro-2,3-dihydrobenzofuran-5-ylsulfonyl)piperidine-2-carbonyloxy)propyl)phenoxy)acetic acid] was tested, and the IC50 [1] was 43.9 ± 10.1 µM and the IC50 [2] was 27.2 ± 3.1 µM.

With COc1ccc(CC[C@@H](OC(=O)[C@@H]2CCCCN2S(=O)(=O)c2cc3ccccc3s2)c2cccc(OCC(=O)O)c2)cc1OC [Compound 5] the inhibition at 5 µM [1, 3] was 15.2%, the inhibition at 5 µM [2, 3] was 12.4% and the IC50 [2] was 67.1 ± 12.1 µM.

For CCOC(=O)C1CCCCN1S(=O)(=O)Cc1ccccc1 (centres unmarked) [Ref. 1, Ethyl 1-(benzylsulfonyl)piperidine-2-carboxylate, reference compound], the IC50 [1] was > 100 µM and the IC50 [2] was > 100 µM.

With COc1ccc(CC[C@@H](OC(=O)[C@@H]2CCCCN2S(=O)(=O)c2cccnc2)c2cccc(OCC(=O)O)c2)cc1OC [Compound 42, 2-(3-((R)-3-(3,4-dimethoxyphenyl)-1-((S)-1-(pyridin-3-ylsulfonyl)piperidine-2-carbonyloxy)propyl)phenoxy)acetic acid] the inhibition at 5 µM [1] was 9.5% and the inhibition at 5 µM [2] was 6.6%.
